Data from PubChem BioAssay AID1963426 (Molecular Pharmacology Branch, DTP, NCI, 2024).

Test system: 186277-243-T-J2-PDC complex spheroid growth, % test/control
Assay: Anticancer human tumor 186277-243-T-J2-PDC patient-derived colon adenocarcinoma cell line growth inhibition [Asc]
Settings: for IC50: curve of first compound; for viability, T/C: stronger effect = lower value; active means viability on the fitted dose curve at most 10% of control; inactive means the rest
Summary of the method: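 Tumor cells were grown as multicellular spheroids with stromal HUVEC and mesenchymal stem cells and treated singly or in combination. Concentrations fell in half-log steps from the clinical Cmax, or from 10 microM where none was known.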

[1] = second compound 0.1 µM, first compound 0.0316 µM
[2] = second compound 0.1 µM, first compound 0.1 µM
[3] = second compound 0.1 µM, first compound 0.316 µM
[4] = second compound 0.1 µM, first compound 1 µM
[5] = second compound 0.316 µM, first compound 0.0316 µM
[6] = second compound 0.316 µM, first compound 0.1 µM
[7] = second compound 0.316 µM, first compound 0.316 µM
[8] = second compound 0.316 µM, first compound 1 µM
[9] = second compound 1 µM, first compound 0.0316 µM
[10] = second compound 1 µM, first compound 0.1 µM
[11] = second compound 1 µM, first compound 0.316 µM
[12] = second compound 1 µM, first compound 1 µM
[13] = second compound 3.16 µM, first compound 0.0316 µM
[14] = second compound 3.16 µM, first compound 0.1 µM
[15] = second compound 3.16 µM, first compound 0.316 µM
[16] = second compound 3.16 µM, first compound 1 µM
[17] = second compound 10 µM, first compound 0.0316 µM
[18] = second compound 10 µM, first compound 0.1 µM
[19] = second compound 10 µM, first compound 0.316 µM
[20] = second compound 10 µM, first compound 1 µM
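Further: spheroids exposed to agents for 7 days.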
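Wherever viability, T/C is given: 100% = DMSO vehicle control wells.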

C#Cc1c(F)ccc2cc(O)cc(-c3ncc4c(N5CC6CCC(C5)N6)nc(OCC56CCCN5CC(F)C6)nc4c3F)c12 (stereo not given) + Cc1c(S(C)(=O)=O)c(-c2cc(F)cc(N3CCN(c4ccc(NS(=O)(=O)c5ccc(NC(CCN6CCC(C(=O)OCCCP(=O)(O)O)CC6)CSc6ccccc6)c(S(=O)(=O)C(F)(F)F)c5)cc4)CC3)c2)c(-c2ccc(Cl)cc2)n1C(C)C
active: viability, T/C (second compound 0.1 µM, first compound 3.16 µM) 6.43% | viability, T/C (second compound 0.1 µM, first compound 10 µM) 5.27% | viability, T/C [8] 7.76% | viability, T/C (second compound 0.316 µM, first compound 3.16 µM) 3.89% | viability, T/C (second compound 0.316 µM, first compound 10 µM) 3.47% | viability, T/C [12] 5.48% | viability, T/C (second compound 1 µM, first compound 3.16 µM) 2.03% | viability, T/C (second compound 1 µM, first compound 10 µM) 1.87% | viability, T/C [15] 8.29% | viability, T/C [16] 2.66% | viability, T/C (second compound 3.16 µM, first compound 3.16 µM) 1.51% | viability, T/C (second compound 3.16 µM, first compound 10 µM) 1.34% | viability, T/C [19] 5.7% | viability, T/C [20] 1.72% | viability, T/C (second compound 10 µM, first compound 3.16 µM) 0.91% | viability, T/C (second compound 10 µM, first compound 10 µM) 0.74%
114 nM: IC50 (second compound 1 µM)
inactive: viability, T/C [1] 91.5% | viability, T/C [2] 69.7% | viability, T/C [3] 30.2% | viability, T/C [4] 11.3% | viability, T/C [5] 115% | viability, T/C [6] 56.9% | viability, T/C [7] 23.6% | viability, T/C [9] 86.3% | viability, T/C [10] 54% | viability, T/C [11] 18.7% | viability, T/C [13] 87% | viability, T/C [14] 47.1% | viability, T/C [17] 76.1% | viability, T/C [18] 46.5%
87.3 nM: IC50 (second compound 10 µM)
127 nM: IC50 (second compound 0.316 µM)
178 nM: IC50 (second compound 0.1 µM)
91.9 nM: IC50 (second compound 3.16 µM)

CNC(C)C(=O)NC1CN(S(=O)(=O)c2cccc(S(=O)(=O)N3CCC4CCC(C(=O)NC(c5ccccc5)c5ccccc5)N4C(=O)C(NC(=O)C(C)NC)C3)c2)CCC2CCC(C(=O)NC(c3ccccc3)c3ccccc3)N2C1=O (stereo not given) + Cc1c(S(C)(=O)=O)c(-c2cc(F)cc(N3CCN(c4ccc(NS(=O)(=O)c5ccc(NC(CCN6CCC(C(=O)OCCCP(=O)(O)O)CC6)CSc6ccccc6)c(S(=O)(=O)C(F)(F)F)c5)cc4)CC3)c2)c(-c2ccc(Cl)cc2)n1C(C)C
> 1000 nM: IC50 (second compound 0.1 µM) | IC50 (second compound 0.316 µM) | IC50 (second compound 1 µM) | IC50 (second compound 3.16 µM) | IC50 (second compound 10 µM)
inactive: viability, T/C (second compound 0.1 µM, first compound 0.00316 µM) 99.7% | viability, T/C (second compound 0.1 µM, first compound 0.01 µM) 108% | viability, T/C [1] 111% | viability, T/C [2] 106% | viability, T/C [3] 101% | viability, T/C [4] 110% | viability, T/C (second compound 0.316 µM, first compound 0.00316 µM) 102% | viability, T/C (second compound 0.316 µM, first compound 0.01 µM) 104% | viability, T/C [5] 102% | viability, T/C [6] 105% | viability, T/C [7] 108% | viability, T/C [8] 110% | viability, T/C (second compound 1 µM, first compound 0.00316 µM) 123% | viability, T/C (second compound 1 µM, first compound 0.01 µM) 114% | viability, T/C [9] 101% | viability, T/C [10] 110% | viability, T/C [11] 110% | viability, T/C [12] 99.5% | viability, T/C (second compound 3.16 µM, first compound 0.00316 µM) 105% | viability, T/C (second compound 3.16 µM, first compound 0.01 µM) 109% | viability, T/C [13] 93.6% | viability, T/C [14] 109% | viability, T/C [15] 110% | viability, T/C [16] 104% | viability, T/C (second compound 10 µM, first compound 0.00316 µM) 93.6% | viability, T/C (second compound 10 µM, first compound 0.01 µM) 103% | viability, T/C [17] 102% | viability, T/C [18] 109% | viability, T/C [19] 101% | viability, T/C [20] 107%

Cc1nc(N2CCC3(CC2)COC(C)C3N)c(CO)nc1Sc1ccnc(N)c1Cl (stereo not given) + Cc1c(S(C)(=O)=O)c(-c2cc(F)cc(N3CCN(c4ccc(NS(=O)(=O)c5ccc(NC(CCN6CCC(C(=O)OCCCP(=O)(O)O)CC6)CSc6ccccc6)c(S(=O)(=O)C(F)(F)F)c5)cc4)CC3)c2)c(-c2ccc(Cl)cc2)n1C(C)C
> 3000 nM: IC50 (second compound 0.1 µM) | IC50 (second compound 0.316 µM) | IC50 (second compound 1 µM) | IC50 (second compound 3.16 µM) | IC50 (second compound 10 µM)
inactive: viability, T/C (second compound 0.1 µM, first compound 0.00949 µM) 112% | viability, T/C (second compound 0.1 µM, first compound 0.03 µM) 99% | viability, T/C (second compound 0.1 µM, first compound 0.0949 µM) 106% | viability, T/C (second compound 0.1 µM, first compound 0.3 µM) 116% | viability, T/C (second compound 0.1 µM, first compound 0.949 µM) 98.1% | viability, T/C (second compound 0.1 µM, first compound 3 µM) 96.1% | viability, T/C (second compound 0.316 µM, first compound 0.00949 µM) 116% | viability, T/C (second compound 0.316 µM, first compound 0.03 µM) 94.9% | viability, T/C (second compound 0.316 µM, first compound 0.0949 µM) 112% | viability, T/C (second compound 0.316 µM, first compound 0.3 µM) 117% | viability, T/C (second compound 0.316 µM, first compound 0.949 µM) 107% | viability, T/C (second compound 0.316 µM, first compound 3 µM) 110% | viability, T/C (second compound 1 µM, first compound 0.00949 µM) 116% | viability, T/C (second compound 1 µM, first compound 0.03 µM) 97.7% | viability, T/C (second compound 1 µM, first compound 0.0949 µM) 114% | viability, T/C (second compound 1 µM, first compound 0.3 µM) 121% | viability, T/C (second compound 1 µM, first compound 0.949 µM) 126% | viability, T/C (second compound 1 µM, first compound 3 µM) 107% | viability, T/C (second compound 3.16 µM, first compound 0.00949 µM) 112% | viability, T/C (second compound 3.16 µM, first compound 0.03 µM) 104% | viability, T/C (second compound 3.16 µM, first compound 0.0949 µM) 111% | viability, T/C (second compound 3.16 µM, first compound 0.3 µM) 115% | viability, T/C (second compound 3.16 µM, first compound 0.949 µM) 111% | viability, T/C (second compound 3.16 µM, first compound 3 µM) 121% | viability, T/C (second compound 10 µM, first compound 0.00949 µM) 97.6% | viability, T/C (second compound 10 µM, first compound 0.03 µM) 96.3% | viability, T/C (second compound 10 µM, first compound 0.0949 µM) 115% | viability, T/C (second compound 10 µM, first compound 0.3 µM) 104% | viability, T/C (second compound 10 µM, first compound 0.949 µM) 100% | viability, T/C (second compound 10 µM, first compound 3 µM) 111%
